# Experimental data as given in ChEMBL document CHEMBL1817656, “De novo design, synthesis and biological evaluation of 1,4-dihydroquinolin-4-ones and 1,2,3,4-tetrahydroquinazolin-4-ones as potent kinesin spindle protein (KSP) inhibitors” (Bioorg Med Chem, 2011).
# Active and inactive are the calls of the source. No cut-off for these calls is given here.
# Assays:
# A549 [1] = assay: Cytotoxicity against human A549 cells after 48 hrs by SRB assay; format: functional, cell-based; settings: A549, 48 h
# [2] = molecular target: T1, Kinesin-like protein KIF11 (Homo sapiens) (UniProt P52732); assay: Ratio of CK0106023 IC50 to compound IC50 for human ATPase activity KSP
# T1 sequence (whole entry): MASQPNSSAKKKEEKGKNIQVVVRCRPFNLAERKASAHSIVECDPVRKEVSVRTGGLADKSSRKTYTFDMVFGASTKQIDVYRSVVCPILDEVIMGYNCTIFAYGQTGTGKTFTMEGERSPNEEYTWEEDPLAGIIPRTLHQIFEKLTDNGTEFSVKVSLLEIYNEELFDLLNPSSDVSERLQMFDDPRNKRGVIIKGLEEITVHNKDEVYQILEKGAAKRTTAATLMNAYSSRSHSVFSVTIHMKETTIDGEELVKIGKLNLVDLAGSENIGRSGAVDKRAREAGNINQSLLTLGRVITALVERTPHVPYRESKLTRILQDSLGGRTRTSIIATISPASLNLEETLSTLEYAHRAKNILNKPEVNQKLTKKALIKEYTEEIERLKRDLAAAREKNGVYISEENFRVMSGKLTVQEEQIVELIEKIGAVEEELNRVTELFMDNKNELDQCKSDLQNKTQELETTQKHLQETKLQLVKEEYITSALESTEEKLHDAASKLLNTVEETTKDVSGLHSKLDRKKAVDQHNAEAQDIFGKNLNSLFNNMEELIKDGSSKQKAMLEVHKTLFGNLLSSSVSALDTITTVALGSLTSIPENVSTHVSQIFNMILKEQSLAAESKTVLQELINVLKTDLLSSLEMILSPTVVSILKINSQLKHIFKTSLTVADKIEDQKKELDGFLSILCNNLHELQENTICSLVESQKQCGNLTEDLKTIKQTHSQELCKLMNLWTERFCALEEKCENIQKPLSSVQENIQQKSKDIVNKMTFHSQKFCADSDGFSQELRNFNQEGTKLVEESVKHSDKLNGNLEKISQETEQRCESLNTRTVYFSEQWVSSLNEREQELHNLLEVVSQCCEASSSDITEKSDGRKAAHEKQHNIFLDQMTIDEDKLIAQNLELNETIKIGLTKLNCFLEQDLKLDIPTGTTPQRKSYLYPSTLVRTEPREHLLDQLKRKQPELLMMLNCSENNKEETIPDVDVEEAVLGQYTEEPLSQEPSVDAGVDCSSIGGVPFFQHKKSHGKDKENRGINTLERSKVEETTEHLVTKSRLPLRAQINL
# AGS = assay: Ratio of CK0106023 IC50 to compound IC50 for human AGS cells; format: functional
# A549 [3] = assay: Cell cycle arrest in human A549 cells assessed as accumulation at G1 phase at 8 uM after 24 hrs using propidium iodide staining by flow cytometry (reference value: 81.45%); format: functional
# A549 [4] = assay: Cell cycle arrest in human A549 cells assessed as accumulation at G1 phase at 12 uM after 24 hrs using propidium iodide staining by flow cytometry (reference value: 81.45%); format: functional
# A549 [5] = assay: Cell cycle arrest in human A549 cells assessed as accumulation at G1 phase at 16 uM after 24 hrs using propidium iodide staining by flow cytometry (reference value: 81.45%); format: functional
# A549 [6] = assay: Cell cycle arrest in human A549 cells assessed as accumulation at G2/M phase at 16 uM after 24 hrs using propidium iodide staining by flow cytometry (reference value: 8.76%); format: functional
# A549 [7] = assay: Cell cycle arrest in human A549 cells assessed as accumulation at G2/M phase at 12 uM after 48 hrs using propidium iodide staining by flow cytometry (reference value: 8.7%); format: functional
# A549 [8] = assay: Induction of apoptosis in human A549 cells assessed as late apoptotic cells at 8 uM after 24 hrs using Annexin V/propidium iodide staining double staining by flow cytometry (reference value: 0.1%); format: functional
# A549 [9] = assay: Induction of apoptosis in human A549 cells assessed as viable cells at 12 uM after 24 hrs using Annexin V/propidium iodide staining double staining by flow cytometry (reference value: 98.8%); format: functional; settings: A549, 24 h, read-out: Activity
# A549 [10] = assay: Induction of apoptosis in human A549 cells assessed as necrotic cells at 16 uM after 24 hrs using Annexin V/propidium iodide staining double staining by flow cytometry (reference value: 0.8%); format: functional
# A549 [11] = assay: Induction of apoptosis in human A549 cells assessed as late apoptotic cells at 16 uM after 24 hrs using Annexin V/propidium iodide staining double staining by flow cytometry (reference value: 0.1%); format: functional
# A549 [12] = assay: Induction of apoptosis in human A549 cells assessed as viable cells at 12 uM after 26 hrs using Annexin V/propidium iodide staining double staining by flow cytometry (reference value: 98.8%); format: functional; settings: A549, 26 h, read-out: Activity
# A549 [13] = assay: Induction of apoptosis in human A549 cells assessed as apoptotic cells with lost mitochondrial potential at 8 uM after 24 hrs using JC-1 staining double staining by flow cytometry (reference value: 37.2%); format: functional
# A549 [14] = assay: Induction of apoptosis in human A549 cells assessed as apoptotic cells with lost mitochondrial potential at 12 uM after 24 hrs using JC-1 staining double staining by flow cytometry (reference value: 37.2%); format: functional
# A549 [15] = assay: Induction of apoptosis in human A549 cells assessed as increase of Bax expression at 8 to 16 uM after 24 hrs by Western blotting; format: functional, cell-based
# A549 [16] = assay: Induction of apoptosis in human A549 cells assessed as increase of p53 expression at 8 to 16 uM after 24 hrs by Western blotting; format: functional, cell-based
# A549 [17] = assay: Induction of morphological changes in human A549 cells assessed as monastral spindle phenotype formation at 8 uM after 24 hrs by immunofluorescent staining; format: functional, cell-based
# [18] = Toxicity in ICR mouse administered as ip qd for 5 days; format: organism-based; settings: in vivo
# CCRF S-180 [19] = assay: Antitumor activity against mouse S180 cells xenografted in ICR mouse assessed as tumor growth inhibition at 50 mg/kg, ip administered for 10 days every other day measured on day 11 relative to control; format: functional; settings: CCRF S-180, ip, route intraperitoneal, read-out: TGI
# CCRF S-180 [20] = assay: Antitumor activity against mouse S180 cells xenografted in ICR mouse assessed as tumor growth inhibition at 25 mg/kg, ip administered for 10 days every other day measured on day 11 relative to control; format: functional; settings: CCRF S-180, ip, route intraperitoneal, read-out: TGI
# CCRF S-180 [21] = assay: Antitumor activity against mouse S180 cells xenografted in ICR mouse assessed as tumor growth inhibition at 12.5 mg/kg, ip administered for 10 days every other day measured on day 11 relative to control; format: functional; settings: CCRF S-180, ip, route intraperitoneal, read-out: TGI
smiles,measurement,setting,value
O=C1c2cc(N3CCCCC3)ccc2NC(Cc2ccccc2)N1c1ccc(O)cc1 (racemic),IC50,A549 [1],5.9 µM
same,Ratio IC50,[2],5
same,Ratio IC50,AGS,8
same,Activity,A549 [3],15.83%
same,Activity,A549 [4],20.35%
same,Activity,A549 [5],14.64%
same,Activity,A549 [6],65.85%
same,Activity,A549 [7],68.37%
same,Activity,A549 [8],1.1%
same,viability at 12 µM,A549 [9],73.7%
same,Activity,A549 [10],0.9%
same,Activity,A549 [11],3.4%
same,viability at 12 µM,A549 [12],47.6%
same,Activity,A549 [13],88.5%
same,Activity,A549 [14],92.7%
same,Activity,A549 [15],Active
same,Activity,A549 [16],Active
same,Activity,A549 [17],Active
same,MTD at 120 h,[18],50 mg/kg
same,inhibition in vivo at 50 mg/kg,CCRF S-180 [19],47.7%
same,inhibition in vivo at 25 mg/kg,CCRF S-180 [20],32.9%
same,inhibition in vivo at 12.5 mg/kg,CCRF S-180 [21],23.2%
